In one series the test system is adenosine A1 receptors. Particulars: background statement, cited from earlier work.
A further series deals with T1, hA1AR (Homo sapiens, UniProt P30542).
T1 construct: expressed in transfected cells; membranes
T1 sequence (P30542 1-326): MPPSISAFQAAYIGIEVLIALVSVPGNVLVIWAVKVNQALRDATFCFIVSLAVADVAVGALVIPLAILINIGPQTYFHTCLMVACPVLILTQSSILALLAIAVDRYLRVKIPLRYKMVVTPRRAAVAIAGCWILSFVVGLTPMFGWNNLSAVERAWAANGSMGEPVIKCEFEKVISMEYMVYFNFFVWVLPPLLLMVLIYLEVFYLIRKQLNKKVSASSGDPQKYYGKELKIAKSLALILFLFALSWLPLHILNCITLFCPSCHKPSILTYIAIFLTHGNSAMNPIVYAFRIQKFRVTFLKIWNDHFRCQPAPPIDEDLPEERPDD
The series is described as follows: Assay of AE (allosteric enhancer) activity: slowing of 125I-ABA dissociation from the A1AR-G protein ternary complex. It counts as binding. The note with it: CHO-K1 membranes; for AE Score, %: 0.1 mM final AE, specifically bound 125I-ABA remaining after 10 minutes of dissociation, Mean ± SEM (N = 3). The source says: The allosteric enhancer (AE) activity was studied at the human A1AR (hA1AR) of a panel of compounds consisting of nine 2-amino-3-aroylthiophenes, (3a-i), eight 2-amino-3-benzoyl-4,5-dimethylthiophenes (13a-h), […] 3-aroyl-2-carboxy-4,5-dimethylthiophenes, (17a-e), ten 2-amino-3-benzoyl-5,6-ihydro-4H-cyclopenta[b]thiophenes, (19a-I), fourteen 2-amino-3-benzoyl-4,5,6,7-tetrahyd robenzo-[b]thiophenes, (20a-n), and fifteen 2-amino-3-benzoyl-5,6,7,8-tetrahydro-4H-cyclohepta[b]thiophenes, (21a-o). An in vitro assay employing the A1AR agonist ^125I-N^6-aminobenzyladenosine (^125I-ABA) and membranes from CHO-K1 cells stably expressing the hA1AR measured, as an index of AE activity, the ability of a candidate AE to slow the dissociation of the radioligand from the A1AR-G protein ternary complex.
The assay of AE activity consisted of three phases: formation of the ^125I-ABA-A1AR-G protein ternary complex; binding of the AE to the allosteric site, and dissociation of the complex by adding a combination of an A1AR antagonist (100 μM cyclopentyltheophylline) and 50 µM GTPγS. This procedure detects only AE activity since phase 3 (dissociation) is affected only by the allosteric activity of the test compound and is not affected by competitive antagonist activity. GTPγS is added to accelerate the dissociation process. […] The assay employed membranes from CHO-K1 cells stably expressing the hA1AR. For agonist binding to equilibrium, the incubation mixture consisted of 10 mM HEPES, pH 7.2, containing 0.5 mM MgCl2, 1 U/mL adenosine deaminase, 0.5 nM ^125I-ABA and 10 μg of membrane protein in a final volume of 100 μL. This phase of the assay was allowed to proceed to equilibrium (>90 minutes) at room temperature. At that point phase 2 was initiated by adding 50 μL of a 0.3 mM solution (0.1 mM final) of a candidate AE or DMSO vehicle to rapidly occupy the allosteric site. Stock solutions of AEs (10 mM) were prepared in DMSO. Five minutes later phase 3 was initiated by the addition of 50 μL of a solution containing 400 μM 8-cyclopentyltheophylline and 200 μM GTPγS. Ten minutes later, residual radioligand bound to Aireceptors was trapped on Whatman GF/C glass fiber filters using a Brandel cell harvester, washed 3 times over a 20 second interval and counted in a γ-counter. The percentage of specifically bound agonist remaining after 10 minutes of dissociation was used to calculate the “score” of AE activity:
AE activity score=100×(B−Bo)/(Beq−Bo)
Where B=residual binding (cpm) bound at the end of 10 minutes of dissociation in the presence of an AE, Bo=residual binding (cpm) at the end of 10 minutes of dissociation in the absence of an AE, and Beq=cpm bound at the end of phase 2. A compound with no AE activity has a score of 0 in this assay. An AE which completely arrests agonist dissociation will have a score of 100.

The target of the next series is T2, A1AR (Homo sapiens, UniProt P30542).
T2 sequence (P30542 1-326): T1 sequence (P30542 1-326)
In words: A1AR antagonistic activity: competition with equilibrium binding of [3H]CPX. The note with it: 100 μM, N = 3; for inhibition at 100 µM: read-out: Antagonist activity, % (% inhibition of specific equilibrium binding of [3H]8-cyclopentyl-1,3-dipropylxanthine). The text has this:
Several of the candidate AEs had substantial antagonistic activity. However, the AE and antagonist activities are unrelated (r^2=0.057, n=28).

The values below come from patent publication US6713638B2, “2-amino-3-aroyl-4,5 alkylthiophenes: agonist allosteric enhancers at human A1 adenosine receptors” (priority 2001, dated 2004).

As for `Cc1sc(N)c(C(=O)c2cccc(C(F)(F)F)c2)c1C` [PD 81,723], the “enhancement at A1 receptors” value in the series on adenosine A1 receptors was “enhancement at A1 receptors of all species tested to date”. Besides, the “selectivity for adenosine A1 receptors” value in the series on adenosine A1 receptors (other adenosine receptor subtypes, other classes of receptors) was “no effects on other adenosine receptor subtypes or on other classes of receptors”.
In general, inhibition refers to the drop in the measured response relative to a control, in per cent. The melting point is the temperature, or range, at which the solid turns liquid. In the case of `NC1SC2=CCCC2=C1C(=O)c1cccc(Br)c1` (stereo not shown) [Compound 19d, 2-Amino-3-(3-bromobenzoyl)-4,5-dihydrocyclopenta[b]thiophene], the melting point worked out at 202 °C. The “AE Score, %” value at hA1AR turned out to be 13 ± 3%. The inhibition at 100 µM at A1AR is 76%.
Regarding `Nc1sc2c(c1C(=O)c1ccc(Cl)cc1)CCCC2` [Compound 20g], the “AE Score, %” value on hA1AR was found to be 68 ± 10%. In addition, on A1AR, the “Antagonist activity, % (% inhibition of specific equilibrium binding of [3H]8-cyclopentyl-1,3-dipropylxanthine)” value is given as 9%.
As to `Nc1sc2c(c1C(=O)c1cccc(Cl)c1)CCCC2` [Compound 20d], the “AE Score, %” value at hA1AR came to 70 ± 9%. For the same compound, on A1AR, the “Antagonist activity, % (% inhibition of specific equilibrium binding of [3H]8-cyclopentyl-1,3-dipropylxanthine)” value is reported as 2%.
Turning to `Nc1sc2c(c1C(=O)c1ccc(I)cc1)CCCCC2` [Compound 21i], the “AE Score, %” value on hA1AR came to 96 ± 4.7%. Besides, on A1AR, the “Antagonist activity, % (% inhibition of specific equilibrium binding of [3H]8-cyclopentyl-1,3-dipropylxanthine)” value was determined as 11%.
Regarding `Nc1sc2c(c1C(=O)c1ccc(-c3ccccc3)cc1)CCCC2` [Compound 20l, 2-Amino-3-(4-phenylbenzoyl)-4,5,6,7-tetrahydrobenzo[b]thiophene], the melting point is 110 °C. The “AE Score, %” value at hA1AR is listed as 33 ± 2%. For the same compound, the “AE activity (in words)” value at hA1AR (hA1AR) is on record as “excellent activity”.
`Nc1sc2c(c1C(=O)c1ccc(I)cc1)CCCC2` [Compound 20i]: the “AE Score, %” value on hA1AR is 86 ± 13%. Besides, the “Antagonist activity, % (% inhibition of specific equilibrium binding of [3H]8-cyclopentyl-1,3-dipropylxanthine)” value at A1AR was determined as 31%.
In turn, `Nc1sccc1C(=O)c1ccccc1` [Compound 3a, 2-Amino-3-benzoylthiophene] displayed a melting point of 147 °C. Besides, the “AE Score, %” value at hA1AR was 0.2 ± 0.01%. Further, the inhibition at 100 µM on A1AR came out at 24%.
On to `Nc1sc2c(c1C(=O)c1ccccc1)CCC2` [Compound 19b], for which the “AE Score, %” value on hA1AR was 20 ± 3.6%. Also, the “Antagonist activity, % (% inhibition of specific equilibrium binding of [3H]8-cyclopentyl-1,3-dipropylxanthine)” value on A1AR is on record as 63%.
For `Nc1sc2c(c1C(=O)c1ccc(C3CCCCC3)cc1)CCCC2` [Compound 20m] the same measures were 99 ± 6% and 45%.
For `Nc1sc2c(c1C(=O)c1cccc(Cl)c1)CCCCC2` [Compound 21c] the same measures were 65 ± 8% and 9%.
